These results are taken from US5223413A, “Process for the preparation of vancomycin” (Biochin Biotechnologial Leanyvallalat, priority 1989, dated 1993).

For this assay, the system named is ATCC 6633 Bacillus subtilis strain. Nature of the assay: agar diffusion determination of antibiotic content / biological potency (USP XXII). It is filed as cell-based. Particulars: final product of Example 5, related to USP reference standard. As for the experimental part: The quantitative determination of the antibiotic content of the fermentation broth and final product was performed by using the agar diffusion method according to the prescriptions of USP XXII. on the ATCC 6633 Bacillus subtilis strain. The vancomycin potency values were related to the commercially available USP reference standard.
For orientation: Agar diffusion results depend on both activity and mobility in agar.

Where a name gives a salt, the structure may show the parent alone.

With `CN[C@H](CC(C)C)C(=O)N[C@H]1C(=O)N[C@@H](CC(N)=O)C(=O)N[C@H]2C(=O)N[C@H]3C(=O)N[C@H](C(=O)N[C@H](C(=O)O)c4cc(O)cc(O)c4-c4cc3ccc4O)[C@H](O)c3ccc(c(Cl)c3)Oc3cc2cc(c3O[C@@H]2O[C@H](CO)[C@@H](O)[C@H](O)[C@H]2O[C@H]2C[C@](C)(N)[C@H](O)[C@H](C)O2)Oc2ccc(cc2Cl)[C@H]1O` [vancomycin hydrochloride], the “biological potency based on microbiological determination” value is recorded as “higher than 968 μg/mg”.
